Consider 4 molecules from patent US7223783B2, “Indolinone derivatives” (Theravance, Inc., priority 2001, dated 2007).

SMILES strings stand for the structures. Read-outs that look alike come from different tables or passages of the source.

The conditions of data set [1]: prior art statement; cited from earlier work.
The conditions of data set [2]: upon oral and intravenous administration; cited from earlier work.
The next data set deals with T1, Flt-3 ITD (Homo sapiens, UniProt P36888, INS600HVDFREYEYD).
T1 construct: MV4-11 cells express Flt-3 ITD; endogenous in cells; host or cells: MV4-11
T1 sequence (P36888 with tags, fused parts or gaps INS600HVDFREYEYD): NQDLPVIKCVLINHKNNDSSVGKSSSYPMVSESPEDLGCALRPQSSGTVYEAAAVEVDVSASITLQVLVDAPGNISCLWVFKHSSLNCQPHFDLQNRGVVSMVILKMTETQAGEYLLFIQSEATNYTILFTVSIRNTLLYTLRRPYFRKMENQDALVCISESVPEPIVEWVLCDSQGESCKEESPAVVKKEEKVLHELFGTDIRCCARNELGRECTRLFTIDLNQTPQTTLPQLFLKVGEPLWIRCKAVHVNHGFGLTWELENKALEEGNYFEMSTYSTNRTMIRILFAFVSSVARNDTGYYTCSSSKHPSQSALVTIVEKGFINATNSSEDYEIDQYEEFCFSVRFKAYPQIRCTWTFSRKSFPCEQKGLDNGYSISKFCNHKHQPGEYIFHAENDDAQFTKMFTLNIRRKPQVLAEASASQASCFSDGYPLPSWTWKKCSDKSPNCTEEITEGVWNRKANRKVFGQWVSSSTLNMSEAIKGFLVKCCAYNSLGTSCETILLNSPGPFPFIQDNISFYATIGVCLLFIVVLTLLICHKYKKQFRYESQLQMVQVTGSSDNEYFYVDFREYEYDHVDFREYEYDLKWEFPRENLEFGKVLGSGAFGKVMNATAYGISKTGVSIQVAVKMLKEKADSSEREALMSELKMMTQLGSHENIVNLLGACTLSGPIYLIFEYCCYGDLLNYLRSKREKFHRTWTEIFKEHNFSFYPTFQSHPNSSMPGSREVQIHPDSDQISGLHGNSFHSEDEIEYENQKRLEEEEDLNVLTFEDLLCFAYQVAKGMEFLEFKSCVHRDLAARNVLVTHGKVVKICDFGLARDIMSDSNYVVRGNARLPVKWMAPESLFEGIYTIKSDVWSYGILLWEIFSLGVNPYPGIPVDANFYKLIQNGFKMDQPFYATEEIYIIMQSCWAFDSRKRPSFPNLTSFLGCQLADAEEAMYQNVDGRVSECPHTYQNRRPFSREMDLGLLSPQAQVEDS
Briefly: Proliferation and viability assay (MTT), cytotoxicity assay. The class given is cell-based. The conditions noted are these: MV4-11 AML cells expressing Flt-3 ITD, 48 hours, highest concentration tested 10 μm.

The target in the next data set is T2, VEGFR (Homo sapiens, UniProt P35968).
T2 construct: against the VEGFR in the FLIPR assay, HUVECs (Walkersville, Md.) were used; endogenous in cells; host or cells: HUVEC
T2 sequence (P35968 20-1356): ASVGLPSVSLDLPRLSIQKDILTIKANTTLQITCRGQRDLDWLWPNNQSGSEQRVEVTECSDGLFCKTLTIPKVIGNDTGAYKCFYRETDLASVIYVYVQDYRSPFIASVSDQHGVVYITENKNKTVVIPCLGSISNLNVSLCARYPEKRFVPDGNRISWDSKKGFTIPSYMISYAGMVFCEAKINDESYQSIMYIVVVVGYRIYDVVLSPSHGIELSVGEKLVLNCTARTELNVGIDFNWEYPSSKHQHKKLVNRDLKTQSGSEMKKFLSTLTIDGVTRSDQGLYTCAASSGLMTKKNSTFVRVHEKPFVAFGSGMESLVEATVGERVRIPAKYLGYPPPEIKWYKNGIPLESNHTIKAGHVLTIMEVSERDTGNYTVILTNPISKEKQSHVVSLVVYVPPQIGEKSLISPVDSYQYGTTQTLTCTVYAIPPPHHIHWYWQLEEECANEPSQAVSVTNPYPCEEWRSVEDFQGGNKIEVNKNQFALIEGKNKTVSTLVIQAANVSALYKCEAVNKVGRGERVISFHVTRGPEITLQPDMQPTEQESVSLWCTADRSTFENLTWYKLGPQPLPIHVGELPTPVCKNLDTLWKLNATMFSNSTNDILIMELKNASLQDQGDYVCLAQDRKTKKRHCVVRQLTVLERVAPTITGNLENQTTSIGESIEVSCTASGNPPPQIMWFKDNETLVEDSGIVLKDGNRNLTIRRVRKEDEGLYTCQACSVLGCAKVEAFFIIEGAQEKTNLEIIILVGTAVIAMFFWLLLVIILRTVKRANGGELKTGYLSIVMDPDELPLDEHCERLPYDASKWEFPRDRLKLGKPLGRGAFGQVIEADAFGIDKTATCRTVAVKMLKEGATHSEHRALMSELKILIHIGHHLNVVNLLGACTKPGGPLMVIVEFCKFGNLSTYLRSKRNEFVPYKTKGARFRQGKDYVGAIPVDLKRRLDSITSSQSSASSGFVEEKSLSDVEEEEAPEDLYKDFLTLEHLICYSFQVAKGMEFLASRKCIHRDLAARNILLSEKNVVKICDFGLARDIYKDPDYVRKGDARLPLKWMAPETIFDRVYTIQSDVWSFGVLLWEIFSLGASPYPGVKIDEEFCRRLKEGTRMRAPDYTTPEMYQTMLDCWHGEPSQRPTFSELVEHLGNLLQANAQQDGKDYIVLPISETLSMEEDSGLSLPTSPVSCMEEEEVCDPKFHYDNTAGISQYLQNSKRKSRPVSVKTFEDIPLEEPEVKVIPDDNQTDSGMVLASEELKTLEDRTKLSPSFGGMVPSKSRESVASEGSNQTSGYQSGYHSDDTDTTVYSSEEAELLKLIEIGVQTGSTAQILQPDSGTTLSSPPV
Nature of the data set: Ca2+ release assay (FLIPR) in HUVECs. The class given is cell-based. The conditions noted are these: VEGF 40 ng/mL, highest concentration tested 1 μm.

The next data set deals with T3, Flt-3 (Homo sapiens, UniProt P36888).
T3 sequence (P36888 27-993): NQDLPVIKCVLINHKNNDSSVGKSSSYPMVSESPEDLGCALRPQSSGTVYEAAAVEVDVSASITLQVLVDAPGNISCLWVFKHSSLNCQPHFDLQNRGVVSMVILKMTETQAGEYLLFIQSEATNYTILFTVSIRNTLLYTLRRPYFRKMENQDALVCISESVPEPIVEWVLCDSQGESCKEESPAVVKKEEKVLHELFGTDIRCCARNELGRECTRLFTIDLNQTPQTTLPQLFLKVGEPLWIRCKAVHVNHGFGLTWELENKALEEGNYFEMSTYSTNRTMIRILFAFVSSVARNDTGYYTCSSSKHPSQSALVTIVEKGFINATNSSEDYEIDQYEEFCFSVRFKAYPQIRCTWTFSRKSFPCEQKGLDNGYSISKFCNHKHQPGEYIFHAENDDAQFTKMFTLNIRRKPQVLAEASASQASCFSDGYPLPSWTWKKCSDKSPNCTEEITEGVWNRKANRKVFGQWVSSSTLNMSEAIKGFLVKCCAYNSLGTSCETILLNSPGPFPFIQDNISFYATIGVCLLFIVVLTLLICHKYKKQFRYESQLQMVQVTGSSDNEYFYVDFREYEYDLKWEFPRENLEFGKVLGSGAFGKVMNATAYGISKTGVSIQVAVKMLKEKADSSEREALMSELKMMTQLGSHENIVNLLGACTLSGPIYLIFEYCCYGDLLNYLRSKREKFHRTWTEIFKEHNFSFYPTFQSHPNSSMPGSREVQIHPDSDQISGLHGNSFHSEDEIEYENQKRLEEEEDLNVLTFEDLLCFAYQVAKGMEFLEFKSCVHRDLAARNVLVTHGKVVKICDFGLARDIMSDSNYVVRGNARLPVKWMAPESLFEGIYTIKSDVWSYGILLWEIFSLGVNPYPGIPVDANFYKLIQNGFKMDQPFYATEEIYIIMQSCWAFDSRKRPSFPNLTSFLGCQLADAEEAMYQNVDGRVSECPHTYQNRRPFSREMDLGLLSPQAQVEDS
The following applies: Abstract 497, O'Farrell et al., ASH 2001; cited from earlier work.

For data set [3], the target named is T4, PDGFR (Homo sapiens, UniProt P09619). Nature of the data set: Immunoprecipitation/Western (IP/Western) receptor autophosphorylation. In kind it is cell-based. The arrangement: expressed in transfected cells; host or cells: HEK PDGFR cell line. The following applies: Immunoprecipitation/Western (IP) assay, HEK PDGFR cell line; highest concentration tested 1 μm. On the procedure:
Immunoprecipitation/Western (IP/Western)
The binding of growth factors to receptor tyrosine kinases like Flt-3 or PDGFR leads to the autophosphorylation of the receptors. The inhibition of autophosphorylation is the objective pursued with kinase inhibitors. By performing an IP/Western experiment the level of receptor autophosphorylation can be assessed directly.
5×10^6 cells (HEK PDGFR cell line for PDGFR, HEK c-Kit for c-Kit, and THP-1, HL-60 or MV4-11 for Flt-3) were incubated for 30 minutes in 2.5 mL of culture media with a defined concentration of test compound. In order to stimulate receptor autophosphorylation, growth factor (PDGF, SCF, or Flt-3 ligand respectively, 50 ng/mL, Biosource International, Camarillo, Calif.) was added for 5 minutes. The cells were then centrifuged and lysed in 500 μL lysis buffer (50 mM Tris pH 7.4, 1% NP-40, 150 mM NaCl, 1 mM EDTA, 1 mM Na3V04). The lysate is centrifuged and 10 μL of antibody against the respective receptor was added to the supernatant (anti-PDGFR (P20), anti-c-Kit (C-19), and anti-Flt-3 (S18), Santa Cruz Biotechnology, Inc.). The immunocomplexes were isolated with Protein G beads (Sigma, St. Louis, Mo.) and PAGE was performed. A Western Blot was done using an antibody against phospho-tyrosine residues (4G10, Upstate Biotechnology, Lake Placid, N.Y.). The intensity of the phospho-tyrosine signal corresponding to various drug concentrations provides a way to determine the IC50 of the test compound for the inhibition of autophosphorylation.

A short description of data set [4]: Pharmacokinetics in male Sprague Dawley rats. In kind it is in vivo, rat. On the procedure: To evaluate pharmacokinetics, male Sprague Dawley rats (CD strain, Charles River Laboratories, Wilmington, Mass.) were dosed with test compounds via intravenous (IV) administration, at 1 mg/kg concentration, and oral (PO) administration, at 10 mg/kg concentration. Blood samples were collected from animals pre-dose, and at 2, 5, 15, and 30 minutes, and at 1, 2, 4, 6, 8, and 24 hours post-dose. Plasma concentrations were determined by liquid chromatography-mass spectrometry (LC-MS) (MDS SCIEX API 4000, Applied Biosystems, Foster City, Calif.). Standard pharmacokinetic parameters were assessed by non-compartmental methods using the WinNonlin Version 3.2 software package (Pharsight, Mountain View, Calif.). Oral bioavailability was determined as the ratio of the area under the curve (AUC) in the graph of plasma concentration versus time for PO administration to the corresponding quantity for IV administration.

The next data set in a line: Solubility in water. The class given is physicochemical.
Data set [5] concerns receptor tyrosine kinases PDGFR, c-Kit, VEGFR and Flt-3. Briefly: One or more of the FLIPR, MTT and IP/Western whole cell assays. The class given is cell-based. On the procedure: In order to determine the IC50 of test compounds against the VEGFR in the FLIPR assay, HUVECs (Walkersville, Md.) were used. For the determination of IC50s against the PDGFR, a HEK cell line were used that expresses the human PDGFR. 40–50000 cells per well were plated in a 96 well plate. The cells were incubated for 3–4 hours to adhere to the plate. Subsequently, the cells were washed twice in FLIPR buffer (1×HBS, 2 mM CaCl, 10 mM HEPES, pH7.4, 2.5 mM Probenecid, 0.1% BSA). After the second wash 50 μL of the Ca^2+ sensitive dye FLUO-3 (FLUO-3 (AM) TEF Labs, 50 μg in 10 mL FLIPR buffer) was added to the remaining 50 μL buffer in each well. After loading the cells for one hour, the cells were washed twice and the test compounds were added in 50 μL as a 2× solution to the 50 μL of buffer in each well. The cells were incubated with the compounds for 30 minutes and then VEGF (40 ng/mL, BioSource International) for the VEGFR or PDGF (40 ng/mL, BioSource International) for the PDGFR was added. The change in fluorescence intensity was measured in a Fluorometric Image Plate Reader (FLIPR) (Molecular Devices).
The inhibition of mutant Flt-3 ITD is expected to affect the proliferation and viability of AML cells with this mutation. […] The plate was incubated at 37 degrees Celsius for 24 hours and, then, the optical density of the wells was determined spectrophotometrically at 550 nm. […]

Data set [6] addresses T4, PDGFR. Nature of the data set: Ca2+ release assay (FLIPR) in HEK cell line expressing human PDGFR. The conditions noted are these: HEK cells expressing human PDGFR, PDGF 40 ng/mL. In kind it is cell-based. The arrangement: expressed in transfected cells; host or cells: HEK.

T4 sequence (P09619 33-1106): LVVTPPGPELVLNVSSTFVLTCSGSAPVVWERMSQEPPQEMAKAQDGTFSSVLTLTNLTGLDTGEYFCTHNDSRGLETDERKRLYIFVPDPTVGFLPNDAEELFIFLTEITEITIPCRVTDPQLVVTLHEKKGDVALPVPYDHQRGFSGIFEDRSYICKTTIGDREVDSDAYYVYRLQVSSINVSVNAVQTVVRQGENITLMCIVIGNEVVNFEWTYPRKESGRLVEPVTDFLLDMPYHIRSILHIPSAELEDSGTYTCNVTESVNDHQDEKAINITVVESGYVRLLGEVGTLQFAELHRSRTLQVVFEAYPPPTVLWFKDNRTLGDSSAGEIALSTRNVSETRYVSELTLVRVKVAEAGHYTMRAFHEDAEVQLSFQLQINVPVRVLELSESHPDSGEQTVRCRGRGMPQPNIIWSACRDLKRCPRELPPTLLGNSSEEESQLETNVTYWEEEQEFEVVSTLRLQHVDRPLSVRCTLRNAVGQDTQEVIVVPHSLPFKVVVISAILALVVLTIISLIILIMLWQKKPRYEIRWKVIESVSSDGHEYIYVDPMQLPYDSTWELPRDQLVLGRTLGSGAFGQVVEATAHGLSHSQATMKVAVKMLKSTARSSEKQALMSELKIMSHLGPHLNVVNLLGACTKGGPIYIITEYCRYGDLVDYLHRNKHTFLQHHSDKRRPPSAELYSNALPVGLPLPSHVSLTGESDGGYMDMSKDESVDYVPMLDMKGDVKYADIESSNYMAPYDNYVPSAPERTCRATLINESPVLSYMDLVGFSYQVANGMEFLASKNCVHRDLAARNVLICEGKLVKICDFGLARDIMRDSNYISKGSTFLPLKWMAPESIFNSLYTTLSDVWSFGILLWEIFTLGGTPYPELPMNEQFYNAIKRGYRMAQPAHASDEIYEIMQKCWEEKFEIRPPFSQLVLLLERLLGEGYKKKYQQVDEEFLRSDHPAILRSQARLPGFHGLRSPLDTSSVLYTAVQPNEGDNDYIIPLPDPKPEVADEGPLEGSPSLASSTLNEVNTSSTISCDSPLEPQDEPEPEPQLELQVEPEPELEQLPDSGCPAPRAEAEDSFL

Turning to `Cc1cc(C)c(/C=C2\C(=O)Nc3ccccc32)[nH]1` [SU5416], in data set [1], the Solubility in water entry is “poor solubility in water”. Also, in data set [2], the bioavailability entry was “low bioavailability”.

On to `Cc1[nH]c(C=C2C(=O)Nc3ccccc32)c(C)c1CCC(=O)O` [SU6668, 3-[2,4-dimethyl-5-(2-oxo-1,2-dihydroindol-3-ylidenemethyl)-1H-pyrrol-3-yl]propionic acid, reference compound], for which the “Flt-3 EC50” value at Flt-3 ITD is recorded as “No activity*”. Moreover, the “VEGFR IC50” value on VEGFR was “No activity**”. Also, the “Ability to inhibit the receptor tyrosine kinase Flt-3” value on Flt-3 was “lack the ability”. Besides, the “PDGFR IC50” value on PDGFR [3] is on record as “No activity**^#”.

As to `Cc1[nH]c(C=C2C(=O)Nc3ccccc32)c(C)c1CCC(=O)N1CCNCC1.O=C(O)C(F)(F)F` [Example 1, 3-[3,5-dimethyl-4-(3-oxo-3-piperazin-1-yl-propyl)-1H-pyrrol-2-ylmethylene]-1,3-dihydroindol-2-one, trifluoroacetate], on Flt-3 ITD, the EC50 stood at 240 nM and the “Flt-3 EC50” value was “sub-micromolar activity”. Besides, on VEGFR, the concentration for half-maximal inhibition (IC50) was 20 nM and the “VEGFR IC50” value is “sub-micromolar activity”. Further, the bioavailability in data set [4] (male, Sprague-Dawley, rat, plasma, oral, 10 mg/kg) was found to be 50.6%. Further, the “Absorption on oral administration” value in data set [4] (oral administration) is “excellent absorption”. The Solubility in water result in the data set “Solubility in water” is listed as “high solubility in water”. In data set [5], the “Inhibition of one or more of PDGFR, c-Kit, VEGFR and Flt-3” value is “highly potent and selective inhibitor”. Also, at PDGFR [3], inhibition was half-maximal at 30 nM (IC50) and the “PDGFR IC50” value was “sub-micromolar activity”.

Consider `CCN1CCN(C(=O)CCc2c(C)[nH]c(C=C3C(=O)Nc4ccccc43)c2C)CC1.O=C(O)C(F)(F)F` [Example 22, 3-[3,5-dimethyl-4-[3-oxo-3-(4-ethyl)piperazin-1-ylpropyl]-1H-pyrrol-2-ylmethylene]-1,3-dihydroindol-2-one, trifluoroacetate], for which, on Flt-3 ITD, a half-maximal response (EC50) required 220 nM and the “Flt-3 EC50” value is “sub-micromolar activity”. In addition, on VEGFR, the IC50 was 30 nM and the “VEGFR IC50” value is listed as “sub-micromolar activity”. Further, at PDGFR [6], inhibition was half-maximal at 90 nM (IC50) and the “PDGFR IC50” value is on record as “sub-micromolar activity”.

The term bioavailability denotes dose-corrected exposure relative to a reference, in per cent. The term EC50 denotes the concentration giving half of the maximal effect. One may read the IC50 as the point on the concentration scale where inhibition reaches its midpoint.
